Measurements from patent US11578056B2, “Solid forms comprising (S)-2-(2,6-dioxopiperidin-3-yl)-4-((2-fluoro-4-((3-morpholinoazetidin-1-yl)methyl)benzyl)amino)isoindoline-1,3-dione and salts thereof, and compositions comprising and methods of using the same” (Celgene Corporation, priority 2019, dated 2023).

Columns and labels:
[1] = Estimated solubility of free base and salt forms in solvents (aliquot addition, visual); assay type: physicochemical
Description: The experiments were carried out by adding the test solvent in aliquots to weighed portions of solid. Whether dissolution had occurred was judged by visual inspection after addition of each solvent aliquot. Solubility numbers were calculated by dividing the total amount of solvent used to dissolve the sample by the weight of the sample. […] The solubility number is expressed as “greater than or equal to” if dissolution occurred on addition of the first solvent aliquot.

[2] = Solid state stability of free base and salt forms under stress storage conditions; assay type: physicochemical; on Chemical (%): time not given here; on Chiral (%): time not given here;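 on Physical stability: Physical stability judged by XRPD check of crystalline form at end of study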
Description: The solid samples were analyzed for both chemical and chiral stability.

## O=C1CC[C@H](N2C(=O)c3cccc(NCc4ccc(CN5CC(N6CCOCC6)C5)cc4F)c3C2=O)C(=O)N1 [Free Base]
[1]; 2-methyl tetrahydrofuran
  Solubility: 30000 µg/mL
[1]; 2-propanol
  Solubility: <1000 µg/mL
[1]; 95:5 2-PrOH/water
  Solubility: 2000 µg/mL
[1]; 95:5 ACN/water
  Solubility: 27000 µg/mL
[1]; 95:5 THF/water
  Solubility: 20000 µg/mL
[1]; 95:5 acetone/water
  Solubility: 31000 µg/mL
[1]; N-methyl pyrrolidone
  Solubility: 31000 µg/mL
[1]; acetone
  Solubility: 52000 µg/mL
[1]; acetonitrile
  Solubility: 33000 µg/mL
[1]; anisole
  Solubility: 26000 µg/mL
[1]; dichloromethane
  Solubility: 59000 µg/mL
[1]; dimethylacetamide
  Solubility: 34000 µg/mL
[1]; ethanol
  Solubility: 1000 µg/mL
[1]; ethyl acetate
  Solubility: 33000 µg/mL
[1]; ethyl formate
  Solubility: 30000 µg/mL
[1]; isopropyl acetate
  Solubility: 6000 µg/mL
[1]; methanol
  Solubility: 2000 µg/mL
[1]; methyl ethyl ketone
  Solubility: 29000 µg/mL
[1]; methyl tert-butyl ether
  Solubility: <1000 µg/mL
[1]; nitromethane
  Solubility: 34000 µg/mL
[1]; tetrahydrofuran
  Solubility: 28000 µg/mL
[1]; toluene
  Solubility: 3000 µg/mL
[1]; water
  Solubility: <1000 µg/mL

## Tosylate
[2]; 40° C.
  Chemical (%): 99.18%
  Chiral (%): 98.52%
  Physical stability: Stable
[2]; 40° C./80% RH
  Chemical (%): 98.84%
  Chiral (%): 98.48%
  Physical stability: Stable
[2]; 60° C.
  Chemical (%): 99.01%
  Chiral (%): 98.46%
  Physical stability: Stable
[2]; 60° C./75% RH
  Chemical (%): 96.76%
  Chiral (%): 98.10%
  Physical stability: Stable
[2]; 70° C.
  Chemical (%): 98.58%
  Chiral (%): 98.43%
  Physical stability: Stable
[2]; 70° C./80% RH
  Chemical (%): 95.73%
  Chiral (%): 97.64%
  Physical stability: Stable
[2]; Ambient
  Chemical (%): 99.19%
  Chiral (%): 98.49%
[1]; 2-methyl tetrahydrofuran
  Solubility: <1000 µg/mL
[1]; 2-propanol
  Solubility: <1000 µg/mL
[1]; 95:5 2-PrOH/water
  Solubility: <1000 µg/mL
[1]; 95:5 ACN/water
  Solubility: 17000 µg/mL
[1]; 95:5 THF/water
  Solubility: 16000 µg/mL
[1]; 95:5 acetone/water
  Solubility: 3000 µg/mL
[1]; N-methyl pyrrolidone
  Solubility: 17000 µg/mL
[1]; acetone
  Solubility: <1000 µg/mL
[1]; acetonitrile
  Solubility: 1000 µg/mL
[1]; anisole
  Solubility: <1000 µg/mL
[1]; dichloromethane
  Solubility: 1000 µg/mL
[1]; dimethylacetamide
  Solubility: 30000 µg/mL
[1]; dimethylsulfoxide
  Solubility: 34000 µg/mL
[1]; ethanol
  Solubility: <1000 µg/mL
[1]; ethyl acetate
  Solubility: <1000 µg/mL
[1]; ethyl formate
  Solubility: <1000 µg/mL
[1]; isopropyl acetate
  Solubility: <1000 µg/mL
[1]; methanol
  Solubility: 3000 µg/mL
[1]; methyl ethyl ketone
  Solubility: <1000 µg/mL
[1]; methyl tert-butyl ether
  Solubility: <1000 µg/mL
[1]; nitromethane
  Solubility: 4000 µg/mL
[1]; tetrahydrofuran
  Solubility: <1000 µg/mL
[1]; toluene
  Solubility: <1000 µg/mL
[1]; water
  Solubility: 2000 µg/mL

## Cl.O=C1CC[C@H](N2C(=O)c3cccc(NCc4ccc(CN5CC(N6CCOCC6)C5)cc4F)c3C2=O)C(=O)N1 [HC1 salt]
[2]; 40° C.
  Chemical (%): 99.13%
  Chiral (%): 99.29%
  Physical stability: Stable
[2]; 40° C./80% RH
  Chemical (%): 99.56%
  Chiral (%): 99.22%
  Physical stability: Stable
[2]; 60° C.
  Chemical (%): 99.35%
  Chiral (%): 99.02%
  Physical stability: Stable
[2]; 60° C./75% RH
  Chemical (%): 99.56%
  Chiral (%): 98.70%
  Physical stability: Stable
[2]; 70° C.
  Chemical (%): 99.32%
  Chiral (%): 99.13%
  Physical stability: Stable
[2]; 70° C./80% RH
  Chemical (%): 99.43%
  Chiral (%): 98.91%
  Physical stability: Stable
[2]; Ambient
  Chemical (%): 99.08%
  Chiral (%): 99.26%

## Cl.O=C1CC[C@H](N2C(=O)c3cccc(NCc4ccc(CN5CC(N6CCOCC6)C5)cc4F)c3C2=O)C(=O)N1 [HCl Salt]
[1]; 2-methyl tetrahydrofuran
  Solubility: <1000 µg/mL
[1]; 2-propanol
  Solubility: <1000 µg/mL
[1]; 95:5 2-PrOH/water
  Solubility: <1000 µg/mL
[1]; 95:5 ACN/water
  Solubility: 3000 µg/mL
[1]; 95:5 THF/water
  Solubility: 1000 µg/mL
[1]; 95:5 acetone/water
  Solubility: <1000 µg/mL
[1]; N-methyl pyrrolidone
  Solubility: 1000 µg/mL
[1]; acetone
  Solubility: <1000 µg/mL
[1]; acetonitrile
  Solubility: <1000 µg/mL
[1]; anisole
  Solubility: <1000 µg/mL
[1]; dichloromethane
  Solubility: <1000 µg/mL
[1]; dimethylacetamide
  Solubility: 1000 µg/mL
[1]; dimethylsulfoxide
  Solubility: 38000 µg/mL
[1]; ethanol
  Solubility: <1000 µg/mL
[1]; ethyl acetate
  Solubility: <1000 µg/mL
[1]; ethyl formate
  Solubility: <1000 µg/mL
[1]; isopropyl acetate
  Solubility: <1000 µg/mL
[1]; methanol
  Solubility: 2000 µg/mL
[1]; methyl ethyl ketone
  Solubility: <1000 µg/mL
[1]; methyl tert-butyl ether
  Solubility: <1000 µg/mL
[1]; nitromethane
  Solubility: <1000 µg/mL
[1]; tetrahydrofuran
  Solubility: <1000 µg/mL
[1]; toluene
  Solubility: <1000 µg/mL
[1]; water
  Solubility: 2000 µg/mL
